# Experimental data: PMC3969094 (Journal of Medicinal Chemistry, 2014)
# pKd: −log10 of the molar value. Positions of bridges follow the written chain, without caps; N, C: chain ends. Non-standard residues stand in square brackets, D forms with d. Residues, ends and D or L forms follow the SMILES beside them. *: point of attachment. FITC = O=C1OC2(c3ccc(O)cc3Oc3cc(O)ccc32)c2ccc(NC(=S)*)cc21; Phe(3,4-Cl2) = N[C@@H](Cc1ccc(Cl)c(Cl)c1)C(=O)O; S5 = C=CCCC[C@](C)(N)C(=O)O; Ahx = NCCCCCC(=O)O
# How the values were obtained:
# [1] = target: RPA70N (Homo sapiens, UniProt P27694); experiment: FPA direct binding of FITC-labeled peptides; conditions: stapled peptides, versus phenylalanine counterparts
# [2] = target: RPA70C/32D/14; experiment: Direct binding FPA assay, selectivity; conditions: read-out: Kd for RPA70C/32D/14, FITC-labeled stapled peptide
Structure (SMILES),increase in affinity by dichlorophenylalanine substitution [1] [fold],pKd [2]
"CC(C)C[C@H](NC(=O)[C@H](C)NC(=O)[C@H](Cc1ccc(Cl)c(Cl)c1)NC(=O)[C@H](Cc1c[nH]c2ccccc12)NC(=O)[C@]1(C)CCCC=CCCC[C@](C)(NC(=O)[C@H](C)NC(=O)[C@@H](NC(=O)[C@H](Cc2ccccc2)NC(=O)[C@H](CC(N)=O)NC(=O)CCCCCNC(=S)Nc2ccc3c(c2)C(=O)OC32c3ccc(O)cc3Oc3cc(O)ccc32)[C@@H](C)O)C(=O)N[C@@H](CC(=O)O)C(=O)N[C@@H](CC(C)C)C(=O)N[C@@H](CCC(=O)O)C(=O)N1)C(N)=O [Peptide-38] ({FITC-Ahx}-NFTA[S5]DLE[S5]W[Phe(3,4-Cl2)]AL-NH2; staple 5-9)",31,–
"CC(C)C[C@H](NC(=O)[C@H](C)NC(=O)[C@H](Cc1ccc(Cl)c(Cl)c1)NC(=O)[C@H](Cc1c[nH]c2ccccc12)NC(=O)[C@]1(C)CCCC=CCCC[C@](C)(NC(=O)[C@H](C)NC(=O)[C@@H](NC(=O)[C@H](Cc2ccccc2)NC(=O)[C@H](CC(N)=O)NC(=O)CCCCCNC(=S)Nc2ccc3c(c2)C(=O)OC32c3ccc(O)cc3Oc3cc(O)ccc32)[C@@H](C)O)C(=O)N[C@@H](CC(N)=O)C(=O)N[C@@H](CC(C)C)C(=O)N[C@@H](CCC(=O)O)C(=O)N1)C(N)=O [Peptide-39] ({FITC-Ahx}-NFTA[S5]NLE[S5]W[Phe(3,4-Cl2)]AL-NH2; staple 5-9)",175,5.62
